Legend:
[1] = test system: Puccinia recondita f. sp. tritici; experiment: Test C: test suspension sprayed on wheat seedlings, inoculated next day with Puccinia recondita f. sp. tritici (wheat leaf rust), visual disease rating; type: in vivo; conditions: for Test C rating (% disease control): relative to the controls
Excerpt: General protocol for preparing test suspensions for Tests A-C: the test compounds were first dissolved in acetone in an amount equal to 3% of the final volume and then suspended at the desired concentration (in ppm) in acetone and purified water (50/50 mix by volume) containing 250 ppm of the surfactant PEG400 (polyhydric alcohol esters). The resulting test suspensions were then used in Tests A-C. The test suspension was sprayed to the point of run-off on wheat seedlings. The following day the seedlings were inoculated with a spore suspension of Puccinia recondita f. sp. tritici; (the causal agent of wheat leaf rust) and incubated in a saturated atmosphere at 20° C., for 24 h, and then moved to a growth chamber at 20° C., for 6 days, after which time visual disease ratings were made. […] A dash (-) indicates the compound was not tested. The test suspensions were sprayed at the concentration listed in the column “Rate in ppm”, unless otherwise indicated.

Phakopsora pachyrhizi = experiment: Test A: test suspension sprayed on soybean seedlings, inoculated next day with Phakopsora pachyrhizi (Asian soybean rust), visual disease rating; type: in vivo; conditions: for Test A rating (% disease control): relative to the controls
Excerpt: General protocol for preparing test suspensions for Tests A-C: the test compounds were first dissolved in acetone in an amount equal to 3% of the final volume and then suspended at the desired concentration (in ppm) in acetone and purified water (50/50 mix by volume) containing 250 ppm of the surfactant PEG400 (polyhydric alcohol esters). The resulting test suspensions were then used in Tests A-C. The test suspension was sprayed to the point of run-off on soybean seedlings. The following day the seedlings were inoculated with a spore suspension of Phakopsora pachyrhizi (the causal agent of Asian soybean rust) and incubated in a saturated atmosphere at 22° C., for 24 h and then moved to a growth chamber at 22° C., for 8 days, after which time visual disease ratings were made. […] A dash (-) indicates the compound was not tested. The test suspensions were sprayed at the concentration listed in the column “Rate in ppm”, unless otherwise indicated.

| Compound | Test C rating (% disease control) ([1]; Rate 10 ppm test suspension) [%] | Test A rating (% disease control) (Phakopsora pachyrhizi; Rate 10 ppm test suspension) [%] | also measured |
| --- | --- | --- | --- |
| CCOC(CC(=O)c1cnn(Cc2ccc(-c3noc(C(F)(F)F)n3)cc2)c1)OCC [compound 391] | 100 | 100 |  |
| C#CCON=Cc1cnn(Cc2ccc(-c3noc(C(F)(F)F)n3)cc2)c1 [compound 387] | 99 | 100 |  |
| Cc1ccc(C(O)c2ccc(-c3noc(C(F)(F)F)n3)cc2)cc1 (stereo not shown) [compound 501] | 0 | 100 |  |
| O=C(OCCCCl)c1cnn(Cc2ccc(-c3noc(C(F)(F)F)n3)cc2)c1 [compound 448] | 100 | 100 |  |
| COC(=O)c1nccn(Cc2ccc(-c3noc(C(F)(F)F)n3)cc2)c1=O [compound 423] | 80 | 86 |  |
| CCOC(=O)c1cn(Cc2ccc(-c3noc(C(F)(F)F)n3)cc2)c(=O)cn1 [compound 419] | 99 | 96 |  |
| COCCNC(=O)C1=NOC(Cc2ccc(-c3noc(C(F)(F)F)n3)s2)C1 (racemic) [compound 461] |  |  | Test C rating (% disease control) ([1]; Rate 50 ppm test suspension): 100%; Test A rating (% disease control) (Phakopsora pachyrhizi; Rate 50 ppm test suspension): 100% |
| CNC(=O)C1=NOC(Cc2ccc(-c3noc(C(F)(F)F)n3)s2)C1 (racemic) [compound 368] |  |  | Test C disease control rating ([1]; 50 ppm test suspension): 100%; Test A disease control rating (Phakopsora pachyrhizi; 50 ppm test suspension): 100% |
| CCOC(=O)Nc1cnn(Cc2ccc(-c3noc(C(F)(F)F)n3)cc2)c1 [compound 443] | 74 | 100 |  |
| CN(C)C(=O)c1cnn(CCCc2ccc(-c3noc(C(F)(F)F)n3)cc2)c1 [compound 406] | 93 | 100 |  |
| FC(F)(F)c1nc(-c2ccc(Cn3ncc4cc(Br)cnc43)cc2)no1 [compound 413] | 68 | 100 |  |
| CCCCOC(=O)c1cnn(Cc2ccc(-c3noc(C(F)(F)F)n3)cc2)c1 [compound 410] | 100 | 100 |  |
| O=C(O)C1=NOC(Cc2ccc(-c3noc(C(F)(F)F)n3)s2)C1 (racemic) [compound 367] |  |  | Test C disease control rating ([1]; 50 ppm test suspension): 67%; Test A disease control rating (Phakopsora pachyrhizi; 50 ppm test suspension): 96% |
| CC(=O)NN=Cc1cnn(Cc2ccc(-c3noc(C(F)(F)F)n3)cc2)c1 [compound 389] | 100 | 100 |  |
| O=C(NCc1cccnc1)c1cnn(Cc2ccc(-c3noc(C(F)(F)F)n3)cc2)c1 [compound 483] | 54 | 100 |  |
| CS(=O)(=O)CCOC(=O)c1cnn(Cc2ccc(-c3noc(C(F)(F)F)n3)cc2)c1 [compound 390] | 100 | 100 |  |
| O=[N+]([O-])c1cnn(Cc2ccc(-c3noc(C(F)(F)F)n3)cc2)c1 [compound 382] | 96 | 100 |  |
| O=C(NCc1ccccc1)c1cnn(Cc2ccc(-c3noc(C(F)(F)F)n3)cc2)c1 [compound 484] | 100 | 100 |  |
| O=C(Nc1ccccc1)c1cnn(Cc2ccc(-c3noc(C(F)(F)F)n3)cc2)c1 [compound 485] | 99 | 100 |  |
| FC(F)(F)c1nc(-c2ccc(Cn3ncc4ncccc43)cc2)no1 [compound 408] | 100 | 100 |  |
| O=C(NCCCl)c1coc(Cc2ccc(-c3noc(C(F)(F)F)n3)cc2)n1 [compound 204] |  |  | Test C disease control rating ([1]; 10 ppm test suspension): 100%; Test A disease control rating (Phakopsora pachyrhizi; 10 ppm test suspension): 100% |
| Nc1cnn(Cc2ccc(-c3noc(C(F)(F)F)n3)cc2)c1 [compound 381] | 0 | 0 |  |
| COCCNC(=O)c1cc(C)n(Cc2ccc(-c3noc(C(F)(F)F)n3)cc2)n1 [compound 183] |  |  | Test C disease control rating ([1]; 10 ppm test suspension): 100%; Test A disease control rating (Phakopsora pachyrhizi; 10 ppm test suspension): 100% |

| Compound | Test C rating (% disease control) ([1]; Rate 10 ppm test suspension) [%] | Test A rating (% disease control) (Phakopsora pachyrhizi; Rate 10 ppm test suspension) [%] | also measured |
| --- | --- | --- | --- |
| COC(=O)c1ccc2c(c1)nnn2Cc1ccc(-c2noc(C(F)(F)F)n2)cc1 [compound 22] |  |  | Test C disease control rating ([1]; 10 ppm test suspension): 96%; Test A disease control rating (Phakopsora pachyrhizi; 10 ppm test suspension): 100% |
| Nc1nn(Cc2ccc(-c3noc(C(F)(F)F)n3)cc2)c2ncccc12 [compound 446] | 86 | 99 |  |
| CCN(CC)C(=O)C1=NOC(Cc2ccc(-c3noc(C(F)(F)F)n3)s2)C1 (racemic) [compound 430] |  |  | Test C rating (% disease control) ([1]; Rate 50 ppm test suspension): 100%; Test A rating (% disease control) (Phakopsora pachyrhizi; Rate 50 ppm test suspension): 100% |
| O=C(OCCN1CCOCC1)c1cnn(Cc2ccc(-c3noc(C(F)(F)F)n3)cc2)c1 [compound 475] | 91 | 100 |  |
| 6-chloro-2-[[4-[5-(trifluoromethyl)-1,2,4-oxadiazol-3-yl]phenyl]methyl]-3(2H)-pyridazinone [Compound 4] |  |  | Test C disease control rating ([1]; 50 ppm test suspension): 100%; Test A disease control rating (Phakopsora pachyrhizi; 50 ppm test suspension): 100% |
| Nc1ncnc2c1cnn2Cc1ccc(-c2noc(C(F)(F)F)n2)cc1 [compound 407] | 100 | 100 |  |
| C=CCOC(=O)c1cnn(Cc2cc(OC)c(-c3noc(C(F)(F)F)n3)s2)c1 [compound 440] | 0 | 0 |  |
| COCCCOC(=O)c1cnn(Cc2ccc(-c3noc(C(F)(F)F)n3)cc2)c1 [compound 474] | 100 | 100 |  |
| FC(F)(F)c1nc(-c2ccc(Cn3ccc4ncccc43)cc2)no1 [Compound 136, 1-[[4-[5-(trifluoromethyl)-1,2,4-oxadiazol-3-yl]phenyl]methyl]-1H-pyrrolo[3,2-h]pyridine] |  |  | Test C disease control rating ([1]; 10 ppm test suspension): 68%; Test C disease control rating ([1]; 50 ppm test suspension): 94%; Test A disease control rating (Phakopsora pachyrhizi; 10 ppm test suspension): 100%; Test A disease control rating (Phakopsora pachyrhizi; 50 ppm test suspension): 100% |
| C#CCNC(=O)C1=NOC(Cc2ccc(-c3noc(C(F)(F)F)n3)s2)C1 (racemic) [compound 429] |  |  | Test C rating (% disease control) ([1]; Rate 50 ppm test suspension): 100%; Test A rating (% disease control) (Phakopsora pachyrhizi; Rate 50 ppm test suspension): 100% |
| CCOC(=O)C1(Cc2ccc(-c3noc(C(F)(F)F)n3)cc2)CCNC1=O (stereo not shown) [compound 431] |  |  | Test C rating (% disease control) ([1]; Rate 50 ppm test suspension): 98%; Test A rating (% disease control) (Phakopsora pachyrhizi; Rate 50 ppm test suspension): 99% |
| O=C(NCC(F)(F)F)c1cnn(Cc2ccc(-c3noc(C(F)(F)F)n3)cc2)c1 [compound 449] | 100 | 100 |  |
| CN(C)C(=O)C1=NOC(Cc2ccc(-c3noc(C(F)(F)F)n3)s2)C1 (racemic) [compound 460] |  |  | Test C rating (% disease control) ([1]; Rate 50 ppm test suspension): 99%; Test A rating (% disease control) (Phakopsora pachyrhizi; Rate 50 ppm test suspension): 100% |
| O=C(OCC1CC1)c1cnn(Cc2ccc(-c3noc(C(F)(F)F)n3)cc2)c1 [compound 411] | 100 | 100 |  |
| FC(F)(F)c1nc(-c2ccc(Cn3ncc4c(I)ccnc43)cc2)no1 [compound 444] | 86 | 96 |  |
| COC(=O)c1ccc(=O)n(Cc2ccc(-c3noc(C(F)(F)F)n3)cc2)c1 [compound 420] | 100 | 100 |  |
| COC(=O)c1cnn(Cc2ccc(-c3noc(C(F)(F)F)n3)s2)c1 [compound 188] |  |  | Test C disease control rating ([1]; 10 ppm test suspension): 100%; Test A disease control rating (Phakopsora pachyrhizi; 10 ppm test suspension): 100% |
| CCOC(=O)COC(=O)c1cnn(Cc2ccc(-c3noc(C(F)(F)F)n3)cc2)c1 [compound 476] | 86 | 100 |  |
| C=CCON=Cc1cnn(Cc2ccc(-c3noc(C(F)(F)F)n3)cc2)c1 [compound 386] | 100 | 100 |  |
| O=C(OCc1ccccc1)c1cnn(Cc2ccc(-c3noc(C(F)(F)F)n3)cc2)c1 [compound 412] | 100 | 100 |  |
| CCONC(=O)c1cnn(Cc2ccc(-c3noc(C(F)(F)F)n3)cc2)c1 [compound 380] | 100 | 100 |  |
| COC(=O)c1cnn(CCCc2ccc(-c3noc(C(F)(F)F)n3)cc2)c1 [compound 436] | 74 | 100 |  |
| FC(F)(F)c1nc(-c2ccc(Cn3cc4ncccc4n3)cc2)no1 [compound 409] | 100 | 100 |  |

From patent publication US12606548B2, “Fungicidal oxadiazoles” (FMC CORPORATION, priority 2019, dated 2026)
